We go through 28 molecules from ChEMBL document CHEMBL4483862, “Open-source discovery of chemical leads for next-generation chemoprotective antimalarials” (2018).

For this assay, the system named is Plasmodium berghei. Description: Luciferase/luciferin-expressing antifolate-resistant parasites were used to infect a culture of HepG2 cells that were pre-incubated with compounds. Infected hepatocytes emit light due to the luciferase reaction. Assay results are presented as the percent inhibition of light emission compared to control. […]. Format: functional. Conditions: sporozoite; for IC90: read-out: LUCIFERASE INFECTION ASSAY - IC90.

A word on the IC50: it is the concentration needed to halve the response being measured. As a reminder, the IC90 is the concentration at which the effect reaches the 90% level. For the molecule `Cc1n(-c2ccccc2)c2c([n+]1C)C(=O)c1ccccc1C2=O`, the IC90 turned out to be 0.202 µM. Moreover, for the setting “HEPG2TOX_HILL_SLOPE 0.753, HEPG2TOX_R_SQUARED 0.901, PBLUC_HILL_SLOPE 2.16, PBLUC_R_SQUARED 0.72, read-out: LUCIFERASE INFECTION ASSAY - IC50”, the IC50 stood at 0.0731 µM.
For `Nc1cccc2c1C(=O)N(C(=O)/C=C/c1cccc(F)c1)C2=O`, the IC90 was more than 10 µM. In addition, the IC50 (HEPG2TOX_HILL_SLOPE 0.728, HEPG2TOX_R_SQUARED 0.696, PBLUC_HILL_SLOPE 1.8, PBLUC_R_SQUARED 0.344, read-out: LUCIFERASE INFECTION ASSAY - IC50) is 8.07 µM.
`O=C(COc1ccc(Oc2ccccc2)cc1)NCc1cn2ccccc2n1`: the IC90 came to 1.77 µM. For the setting “HEPG2TOX_HILL_SLOPE 0.752, HEPG2TOX_R_SQUARED 0.901, PBLUC_HILL_SLOPE 2.64, PBLUC_R_SQUARED 0.419, read-out: LUCIFERASE INFECTION ASSAY - IC50”, the IC50 was found to be 0.772 µM.
`Cc1onc(-c2c(Cl)cccc2Cl)c1C(=O)N1CCCc2ccccc21`: the 90% effect concentration (IC90) was more than 8.52 µM. The IC50 (HEPG2TOX_HILL_SLOPE 0.734, HEPG2TOX_R_SQUARED 0.611, PBLUC_HILL_SLOPE 1.71, PBLUC_R_SQUARED 0.613, read-out: LUCIFERASE INFECTION ASSAY - IC50) amounted to 3.64 µM.
As to `Cc1nn(C)c(C)c1CC(=O)Nc1ccc(-n2cnc3ccccc32)cc1`, the concentration for an effect of 90% (IC90) is more than 10 µM. The concentration for half-maximal inhibition (IC50) (HEPG2TOX_HILL_SLOPE 0.764, HEPG2TOX_R_SQUARED 0.908, PBLUC_HILL_SLOPE 0.735, PBLUC_R_SQUARED 0.618, read-out: LUCIFERASE INFECTION ASSAY - IC50) is 1.31 µM.
In the case of `OCc1ccccc1-c1cn2c(-c3ccc4ncccc4c3)cnc2cn1`, the IC90 was found to be 0.468 µM. Besides, the IC50 (HEPG2TOX_HILL_SLOPE 0.72, HEPG2TOX_R_SQUARED 0.902, PBLUC_HILL_SLOPE 1.49, PBLUC_R_SQUARED 0.863, read-out: LUCIFERASE INFECTION ASSAY - IC50) was determined as 0.107 µM.
As for `O=C(Nc1ccccc1Oc1ccccc1Cl)c1cc2ccccc2c(=O)[nH]1`, the IC90 amounted to 1.25 µM. The IC50 (HEPG2TOX_HILL_SLOPE 0.764, HEPG2TOX_R_SQUARED 0.704, PBLUC_HILL_SLOPE 15.6, PBLUC_R_SQUARED 0.531, read-out: LUCIFERASE INFECTION ASSAY - IC50) came to 1.09 µM.
As for `CC(=O)c1cccc(-c2cnc3ccc(Cc4ccc(F)cc4)nn23)c1`, the IC90 came to 5.55 µM. In addition, the IC50 (HEPG2TOX_HILL_SLOPE 0.753, HEPG2TOX_R_SQUARED 0.0911, PBLUC_HILL_SLOPE 6.85, PBLUC_R_SQUARED 0.304, read-out: LUCIFERASE INFECTION ASSAY - IC50) was 4.02 µM.
Consider `CC(Nc1ncnc2sccc12)c1ccc(F)cc1` (stereo unspecified), for which the IC90 stood at 8.6 µM. In addition, for the setting “HEPG2TOX_HILL_SLOPE 0.743, HEPG2TOX_R_SQUARED 0.939, PBLUC_HILL_SLOPE 0.968, PBLUC_R_SQUARED 0.762, read-out: LUCIFERASE INFECTION ASSAY - IC50”, the IC50 is 0.889 µM.
For `Cc1nc2ccccc2nc1SC(C)C(=O)c1c[nH]c2ccccc12` (stereo unspecified), the IC90 stood at 1.98 µM. For the same molecule, the concentration for half-maximal inhibition (IC50) (HEPG2TOX_HILL_SLOPE 0.739, HEPG2TOX_R_SQUARED 0.941, PBLUC_HILL_SLOPE 2.85, PBLUC_R_SQUARED 0.882, read-out: LUCIFERASE INFECTION ASSAY - IC50) was found to be 0.916 µM.
With `CCN(CC)S(=O)(=O)c1ccc2c(c1)CCN2Cc1nc2ccccc2c(=O)n1C`, the IC90 was more than 10 µM. Besides, the IC50 (HEPG2TOX_HILL_SLOPE 0.751, HEPG2TOX_R_SQUARED 0.213, PBLUC_HILL_SLOPE 2.58, PBLUC_R_SQUARED 0.526, read-out: LUCIFERASE INFECTION ASSAY - IC50) turned out to be 6.02 µM.
For `O=C(Nc1nc2ccccn2c1C(=O)NC1CCCC1)c1cccc(Cl)c1F`, the IC90 was determined as 1.24 µM. In addition, under “HEPG2TOX_HILL_SLOPE 0.754, HEPG2TOX_R_SQUARED 0.896, PBLUC_HILL_SLOPE 3.54, PBLUC_R_SQUARED 0.569, read-out: LUCIFERASE INFECTION ASSAY - IC50”, the IC50 amounted to 0.669 µM.
As to `COc1cc(-c2ccc3ncc(-c4cccc(NC(C)=O)c4)n3n2)cc(OC)c1OC`, the IC90 turned out to be 4.34 µM. Also, for the setting “HEPG2TOX_HILL_SLOPE 0.736, HEPG2TOX_R_SQUARED 0.983, PBLUC_HILL_SLOPE 1.49, PBLUC_R_SQUARED 0.582, read-out: LUCIFERASE INFECTION ASSAY - IC50”, the IC50 turned out to be 0.995 µM.
Regarding `Cc1nn(Cc2ccccc2)c2sc(C(=O)Nc3nc4ccccc4[nH]3)cc12`, the IC90 is 0.562 µM. Under “HEPG2TOX_HILL_SLOPE 0.737, HEPG2TOX_R_SQUARED 0.843, PBLUC_HILL_SLOPE 3.70, 1.65, PBLUC_R_SQUARED 0.424, 0.851, read-out: LUCIFERASE INFECTION ASSAY - IC50”, the IC50 was found to be 0.229 µM.
As for `COc1cc2c(cc1OC)CN(C(=O)c1ccc(OCC(F)(F)F)nc1)CC2`, the IC90 was 7.21 µM. In addition, the IC50 (HEPG2TOX_HILL_SLOPE 0.758, HEPG2TOX_R_SQUARED 0.894, PBLUC_HILL_SLOPE 2.65, PBLUC_R_SQUARED 0.321, read-out: LUCIFERASE INFECTION ASSAY - IC50) is 3.14 µM.
As to `CC(=O)c1cccc(-c2cnc3ccc(-c4cccc(Cl)c4)nn23)c1`, the IC90 was 8.63 µM. The IC50 (HEPG2TOX_HILL_SLOPE 0.743, HEPG2TOX_R_SQUARED 0.718, PBLUC_HILL_SLOPE 1.63, PBLUC_R_SQUARED 0.591, read-out: LUCIFERASE INFECTION ASSAY - IC50) stood at 2.24 µM.
Regarding `COc1ccc(C(=O)NNC(=O)c2nn(-c3ccccc3)cc2O)c(OC)c1OC`, the IC90 was determined as 2.77 µM. Moreover, under “HEPG2TOX_HILL_SLOPE 0.737, HEPG2TOX_R_SQUARED 0.981, PBLUC_HILL_SLOPE 4.06, PBLUC_R_SQUARED 0.568, read-out: LUCIFERASE INFECTION ASSAY - IC50”, the IC50 amounted to 1.61 µM.
On to `COc1cccc(C(O)c2nc(C(=O)Nc3ccc(OCc4ccccc4)cc3)cs2)c1` (stereo unspecified), for which the 90% effect concentration (IC90) amounted to 4.39 µM. The IC50 (HEPG2TOX_HILL_SLOPE 0.759, HEPG2TOX_R_SQUARED 0.957, PBLUC_HILL_SLOPE 2.06, PBLUC_R_SQUARED 0.859, read-out: LUCIFERASE INFECTION ASSAY - IC50) was determined as 1.51 µM.
`CN(c1ccccc1)c1nccc2nc(-c3ccncc3)[nH]c12`: the IC90 is more than 10 µM. For the setting “HEPG2TOX_HILL_SLOPE 0.766, HEPG2TOX_R_SQUARED 0.225, read-out: LUCIFERASE INFECTION ASSAY - IC50”, the IC50 is more than 10 µM.
Take `Cc1c(Cl)c(=O)[nH]c2ccccc12`: the IC90 is more than 17 µM. For the same molecule, where the note is “HEPG2TOX_HILL_SLOPE 0.732, HEPG2TOX_R_SQUARED 0.944, PBLUC_HILL_SLOPE 0.944, PBLUC_R_SQUARED 0.141, read-out: LUCIFERASE INFECTION ASSAY - IC50”, the IC50 is more than 17 µM.
As to `CN(c1ccccc1)S(=O)(=O)c1ccc(C(=O)Nc2nn3cc(-c4ccccc4)nc3s2)cc1`, the IC90 was more than 10 µM. The IC50 (HEPG2TOX_HILL_SLOPE 0.762, HEPG2TOX_R_SQUARED 0.67, PBLUC_HILL_SLOPE 10.6, PBLUC_R_SQUARED 0.0386, read-out: LUCIFERASE INFECTION ASSAY - IC50) is more than 10 µM.
For the molecule `COc1ccc(C(=O)N2CCC(Cc3ccccc3)CC2)c(O)c1`, the IC90 is more than 10 µM. Further, the concentration for half-maximal inhibition (IC50) (HEPG2TOX_HILL_SLOPE 0.725, HEPG2TOX_R_SQUARED 0.627, PBLUC_HILL_SLOPE 3.95, PBLUC_R_SQUARED 0.49, read-out: LUCIFERASE INFECTION ASSAY - IC50) stood at 7.88 µM.
As for `c1ccc2cc(OCCNc3ncnc4sccc34)ccc2c1`, the IC90 was determined as 3.89 µM. Also, the IC50 (HEPG2TOX_HILL_SLOPE 0.735, HEPG2TOX_R_SQUARED 0.741, PBLUC_HILL_SLOPE 1.1, PBLUC_R_SQUARED 0.73, read-out: LUCIFERASE INFECTION ASSAY - IC50) was 0.524 µM.
In the case of `Cn1nc(C(C)(C)C)cc1NC(=O)Cc1ccc(-c2ccccc2)cc1`, the IC90 is more than 10 µM. Also, the IC50 (HEPG2TOX_HILL_SLOPE 0.763, HEPG2TOX_R_SQUARED 0.965, PBLUC_HILL_SLOPE 1.31, PBLUC_R_SQUARED 0.513, read-out: LUCIFERASE INFECTION ASSAY - IC50) turned out to be 2.95 µM.
For the molecule `COc1cccc(CN2CCN3C(C(=O)Nc4cccc(OC(F)(F)F)c4)=COC3=NC2=O)c1`, the IC90 is more than 10 µM. Further, the IC50 (HEPG2TOX_HILL_SLOPE 0.751, HEPG2TOX_R_SQUARED 0.867, PBLUC_HILL_SLOPE 2.96, PBLUC_R_SQUARED 0.388, read-out: LUCIFERASE INFECTION ASSAY - IC50) worked out at 6.84 µM.
With `O=C(COc1ccccc1C(=O)N/N=C/c1ccccc1O)Nc1ccc(SC(F)F)cc1`, the IC90 was 1.53 µM. In addition, under “HEPG2TOX_HILL_SLOPE 0.754, HEPG2TOX_R_SQUARED 0.891, PBLUC_HILL_SLOPE 11.1, PBLUC_R_SQUARED 0.496, read-out: LUCIFERASE INFECTION ASSAY - IC50”, the IC50 is 1.26 µM.
On to `CC(=O)c1cccc(-c2cnc3ccc(-c4cccc(N)c4)nn23)c1`, for which the IC90 stood at 3.85 µM. For the same molecule, the IC50 (HEPG2TOX_HILL_SLOPE 0.765, HEPG2TOX_R_SQUARED 0.894, PBLUC_HILL_SLOPE 1.06, PBLUC_R_SQUARED 0.553, read-out: LUCIFERASE INFECTION ASSAY - IC50) was determined as 0.481 µM.
For the molecule `N#CC(C#N)=Cc1c(-c2ccc(Cl)cc2)[nH]c2ccccc12`, the IC90 was 1.39 µM. The half-maximal inhibitory concentration (IC50) (HEPG2TOX_HILL_SLOPE 0.752, HEPG2TOX_R_SQUARED 0.846, PBLUC_HILL_SLOPE 1.54, PBLUC_R_SQUARED 0.775, read-out: LUCIFERASE INFECTION ASSAY - IC50) amounted to 0.332 µM.
